Patent publication US20020137929A1, “1 - (3-heterocyclylphenyl) isothiourea, -isourea, -guanidine and -amidine herbicidal agents” (Intellectual Property Department, BASF Aktiengesellschaft, priority 1998, published 2002)

Columns and labels:
AMBEL (Ragweed, Common) [1] = assay: Postemergence herbicidal evaluation; assay type: in vivo, Ambrosia artemisifolia; conditions: postemergence
In short: (§1)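 Visual 0-9 injury score (stand, vigor, malformation, size, chlorosis, appearance vs untreated) taken four to five weeks post-spray, averaged across repeat tests. Test plants about two weeks old; foliar spray of acetone/water (1:1) with 0.5% surfactant delivering ~0.0156-0.500 kg active/ha.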

CASOB (Sicklepod) [2] = assay: Postemergence herbicidal evaluation; assay type: in vivo, Cassia obtusifolia; conditions: postemergence
In short: as §1

[3] = system: CHEAL (Lambsquarters, Common); assay: Postemergence herbicidal evaluation; assay type: in vivo, Chenopodium album; conditions: postemergence
In short: as §1

[4] = system: IPOHE (Morningglory, Ivyleaf); assay: Postemergence herbicidal evaluation; assay type: in vivo, Ipomoea hederacea; conditions: postemergence
In short: as §1

ECHCG (Barnyardgrass) = assay: Postemergence herbicidal evaluation; assay type: in vivo, Echinochloa crus-galli; conditions: postemergence
In short: as §1

[5] = system: GLXMAW (Soybean, Williams); assay: Postemergence herbicidal evaluation; assay type: in vivo, Glycine max, (L.) Merr. cv Williams; conditions: postemergence
In short: as §1

[6] = system: TRZAWR (Wheat, Winter, cv Riband); assay: Postemergence herbicidal evaluation; assay type: in vivo, Triticum aestivum; conditions: postemergence
In short: as §1

ABUTH (Velvetleaf) = assay: Preemergence herbicidal evaluation; assay type: in vivo, Abutilon theophrasti; conditions: preemergence, rated 4-5 weeks after treatment, 0-9 scale
In short: (§2)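 Greenhouse preemergence test: seed-soil mix sown on ~1 inch soil; aqueous acetone spray at equivalent of ~0.0156–0.500 kg/ha; greenhouse-held and watered; scored 0–9 visually at 4–5 weeks.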

AMBEL (Ragweed, Common) [7] = assay: Preemergence herbicidal evaluation; assay type: in vivo, Ambrosia artemisifolia; conditions: preemergence, rated 4-5 weeks after treatment, 0-9 scale
In short: as §2

CASOB (Sicklepod) [8] = assay: Preemergence herbicidal evaluation; assay type: in vivo, Cassia obtusifolia; conditions: preemergence, rated 4-5 weeks after treatment, 0-9 scale
In short: as §2

[9] = system: CHEAL (Lambsquarters, Common); assay: Preemergence herbicidal evaluation; assay type: in vivo, Chenopodium album; conditions: preemergence, rated 4-5 weeks after treatment, 0-9 scale
In short: as §2

[10] = system: IPOHE (Morningglory, Ivyleaf); assay: Preemergence herbicidal evaluation; assay type: in vivo, Ipomoea hederacea; conditions: preemergence, rated 4-5 weeks after treatment, 0-9 scale
In short: as §2

[11] = system: GLXMAW (Soybean, Williams); assay: Preemergence herbicidal evaluation; assay type: in vivo, Glycine max, (L.) Merr. cv Williams; conditions: preemergence, rated 4-5 weeks after treatment, 0-9 scale
In short: as §2

ORYSAT (Rice, Tebonnet) = assay: Preemergence herbicidal evaluation; assay type: in vivo, Oryza sativa, (L.) Tebonnet; conditions: preemergence, rated 4-5 weeks after treatment, 0-9 scale
In short: as §2

MOOVA (Monochoria) = assay: Preemergence weed control under flooded paddy conditions; assay type: in vivo, Monochoria vaginalis; conditions: rated 3-4 weeks after treatment
In short: (§3)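 Seeds or propagules sown in top 0.5 cm of silt loam soil, flooded 1.5 to 3 cm above surface throughout. Compound in 50/50 v/v aqueous/acetone pipetted into flood water at about 0.0313 to 0.500 kg/ha. Visual 0-9 rating versus control after three to four weeks in greenhouse.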

[12] = system: SAGPY (Arrowhead (Pygmaea)); assay: as above; assay type: in vivo, Sagittaria pygmaea; conditions: rated 3-4 weeks after treatment
In short: as §3

## C#CCOC(=O)CC1SC(=Nc2cc(-n3c(=O)cc(C(F)(F)F)n(C)c3=O)c(F)cc2Cl)N(C)C1=O (stereo not shown) [Compound 90, 2-Propynyl 2-{{2-chloro-5-[3,6-dihydro-3-methyl-2,6-dioxo-4-(trifluoromethyl)-1(2H)-pyrimidinyl]-4-fluorophenyl}imino}-3-methyl-4-oxo-5-thiazolidineacetate]
AMBEL (Ragweed, Common) [1]; rate 0.0158 kg/ha
  AMBEL herbicidal rating: 9.0
AMBEL (Ragweed, Common) [1]; rate 0.0315 kg/ha
  AMBEL herbicidal rating: 9.0
AMBEL (Ragweed, Common) [1]; rate 0.0630 kg/ha
  AMBEL herbicidal rating: 9.0
CASOB (Sicklepod) [2]; rate 0.0158 kg/ha
  CASOB herbicidal rating: 2.0
CASOB (Sicklepod) [2]; rate 0.0315 kg/ha
  CASOB herbicidal rating: 3.0
CASOB (Sicklepod) [2]; rate 0.0630 kg/ha
  CASOB herbicidal rating: 4.0
[3]; rate 0.0158 kg/ha
  CHEAL herbicidal rating: 5.0
[3]; rate 0.0315 kg/ha
  CHEAL herbicidal rating: 7.0
[3]; rate 0.0630 kg/ha
  CHEAL herbicidal rating: 9.0
[4]; rate 0.0158 kg/ha
  IPOHE herbicidal rating: 9.0
[4]; rate 0.0315 kg/ha
  IPOHE herbicidal rating: 9.0
[4]; rate 0.0630 kg/ha
  IPOHE herbicidal rating: 9.0
ECHCG (Barnyardgrass); rate 0.0158 kg/ha
  ECHCG herbicidal rating: 3.0
ECHCG (Barnyardgrass); rate 0.0315 kg/ha
  ECHCG herbicidal rating: 5.0
ECHCG (Barnyardgrass); rate 0.0630 kg/ha
  ECHCG herbicidal rating: 9.0
[5]; rate 0.0158 kg/ha
  GLXMAW herbicidal rating: 9.0
[5]; rate 0.0315 kg/ha
  GLXMAW herbicidal rating: 9.0
[5]; rate 0.0630 kg/ha
  GLXMAW herbicidal rating: 9.0
[6]; rate 0.0158 kg/ha
  TRZAWR herbicidal rating: 5.5
[6]; rate 0.0315 kg/ha
  TRZAWR herbicidal rating: 7.0
[6]; rate 0.0630 kg/ha
  TRZAWR herbicidal rating: 7.5
ABUTH (Velvetleaf); 0.0313 kg/ha
  ABUTH rating: 9.0
ABUTH (Velvetleaf); 0.0625 kg/ha
  ABUTH rating: 9.0
ABUTH (Velvetleaf); 0.1250 kg/ha
  ABUTH rating: 9.0
ABUTH (Velvetleaf); 0.2500 kg/ha
  ABUTH rating: 9.0
AMBEL (Ragweed, Common) [7]; 0.0313 kg/ha
  AMBEL rating: 0.0
AMBEL (Ragweed, Common) [7]; 0.0625 kg/ha
  AMBEL rating: 3.0
AMBEL (Ragweed, Common) [7]; 0.1250 kg/ha
  AMBEL rating: 9.0
AMBEL (Ragweed, Common) [7]; 0.2500 kg/ha
  AMBEL rating: 9.0
CASOB (Sicklepod) [8]; 0.0313 kg/ha
  CASOB rating: 3.0
CASOB (Sicklepod) [8]; 0.0625 kg/ha
  CASOB rating: 9.0
CASOB (Sicklepod) [8]; 0.1250 kg/ha
  CASOB rating: 9.0
CASOB (Sicklepod) [8]; 0.2500 kg/ha
  CASOB rating: 9.0
[9]; 0.0313 kg/ha
  CHEAL rating: 7.0
[9]; 0.0625 kg/ha
  CHEAL rating: 9.0
[9]; 0.1250 kg/ha
  CHEAL rating: 9.0
[9]; 0.2500 kg/ha
  CHEAL rating: 9.0
[10]; 0.0313 kg/ha
  IPOHE rating: 1.0
[10]; 0.0625 kg/ha
  IPOHE rating: 4.0
[10]; 0.1250 kg/ha
  IPOHE rating: 9.0
[10]; 0.2500 kg/ha
  IPOHE rating: 9.0
[11]; 0.0313 kg/ha
  GLXMAW rating: 0.0
[11]; 0.0625 kg/ha
  GLXMAW rating: 2.0
[11]; 0.1250 kg/ha
  GLXMAW rating: 7.0
[11]; 0.2500 kg/ha
  GLXMAW rating: 9.0
ORYSAT (Rice, Tebonnet); 0.0313 kg/ha
  ORYSAT rating: 0.0
ORYSAT (Rice, Tebonnet); 0.0625 kg/ha
  ORYSAT rating: 0.0
ORYSAT (Rice, Tebonnet); 0.1250 kg/ha
  ORYSAT rating: 2.0
ORYSAT (Rice, Tebonnet); 0.2500 kg/ha
  ORYSAT rating: 9.0
MOOVA (Monochoria); 0.0313 kg/ha
  MOOVA herbicidal effect rating: 9.0
MOOVA (Monochoria); 0.0625 kg/ha
  MOOVA herbicidal effect rating: 9.0
MOOVA (Monochoria); 0.1250 kg/ha
  MOOVA herbicidal effect rating: 9.0
MOOVA (Monochoria); 0.2500 kg/ha
  MOOVA herbicidal effect rating: 9.0
[12]; 0.0313 kg/ha
  SAGPY herbicidal effect rating: 4.0
[12]; 0.0625 kg/ha
  SAGPY herbicidal effect rating: 6.0
[12]; 0.1250 kg/ha
  SAGPY herbicidal effect rating: 9.0
[12]; 0.2500 kg/ha
  SAGPY herbicidal effect rating: 9.0

## CN1C(=O)C(CC(=O)Nc2ccccc2)SC1=Nc1cc(-n2c(=O)cc(C(F)(F)F)n(C)c2=O)c(F)cc1Cl (stereo not shown) [Compound 91, 2-{{2-Chloro-5-[3,6-dihydro-3-methyl-2,6-dioxo-4-(trifluoromethyl)-1(2H)-pyrimidinyl]-4-fluorophenyl}imino}-3-methyl-4-oxo-5-thiazolidineacetanilide]
AMBEL (Ragweed, Common) [1]; rate 0.0158 kg/ha
  AMBEL herbicidal rating: 0.0
AMBEL (Ragweed, Common) [1]; rate 0.0315 kg/ha
  AMBEL herbicidal rating: 0.0
AMBEL (Ragweed, Common) [1]; rate 0.0630 kg/ha
  AMBEL herbicidal rating: 4.0
CASOB (Sicklepod) [2]; rate 0.0158 kg/ha
  CASOB herbicidal rating: 0.0
CASOB (Sicklepod) [2]; rate 0.0315 kg/ha
  CASOB herbicidal rating: 0.0
CASOB (Sicklepod) [2]; rate 0.0630 kg/ha
  CASOB herbicidal rating: 4.0
[3]; rate 0.0158 kg/ha
  CHEAL herbicidal rating: 0.0
[3]; rate 0.0315 kg/ha
  CHEAL herbicidal rating: 3.0
[3]; rate 0.0630 kg/ha
  CHEAL herbicidal rating: 3.0
[4]; rate 0.0158 kg/ha
  IPOHE herbicidal rating: 7.0
[4]; rate 0.0315 kg/ha
  IPOHE herbicidal rating: 9.0
[4]; rate 0.0630 kg/ha
  IPOHE herbicidal rating: 9.0
ECHCG (Barnyardgrass); rate 0.0158 kg/ha
  ECHCG herbicidal rating: 0.0
ECHCG (Barnyardgrass); rate 0.0315 kg/ha
  ECHCG herbicidal rating: 0.0
ECHCG (Barnyardgrass); rate 0.0630 kg/ha
  ECHCG herbicidal rating: 0.0
[5]; rate 0.0158 kg/ha
  GLXMAW herbicidal rating: 4.5
[5]; rate 0.0315 kg/ha
  GLXMAW herbicidal rating: 4.5
[5]; rate 0.0630 kg/ha
  GLXMAW herbicidal rating: 5.5
[6]; rate 0.0158 kg/ha
  TRZAWR herbicidal rating: 2.5
[6]; rate 0.0315 kg/ha
  TRZAWR herbicidal rating: 3.0
[6]; rate 0.0630 kg/ha
  TRZAWR herbicidal rating: 4.0
ABUTH (Velvetleaf); 0.1250 kg/ha
  ABUTH rating: 4.0
ABUTH (Velvetleaf); 0.2500 kg/ha
  ABUTH rating: 9.0
AMBEL (Ragweed, Common) [7]; 0.1250 kg/ha
  AMBEL rating: 0.0
AMBEL (Ragweed, Common) [7]; 0.2500 kg/ha
  AMBEL rating: 0.0
CASOB (Sicklepod) [8]; 0.1250 kg/ha
  CASOB rating: 0.0
CASOB (Sicklepod) [8]; 0.2500 kg/ha
  CASOB rating: 0.0
[9]; 0.1250 kg/ha
  CHEAL rating: 4.0
[9]; 0.2500 kg/ha
  CHEAL rating: 9.0
[10]; 0.1250 kg/ha
  IPOHE rating: 0.0
[10]; 0.2500 kg/ha
  IPOHE rating: 0.0
[11]; 0.1250 kg/ha
  GLXMAW rating: 0.0
[11]; 0.2500 kg/ha
  GLXMAW rating: 0.0
ORYSAT (Rice, Tebonnet); 0.1250 kg/ha
  ORYSAT rating: 0.0
ORYSAT (Rice, Tebonnet); 0.2500 kg/ha
  ORYSAT rating: 0.0
MOOVA (Monochoria); 0.0313 kg/ha
  MOOVA herbicidal effect rating: 9.0
MOOVA (Monochoria); 0.0625 kg/ha
  MOOVA herbicidal effect rating: 9.0
MOOVA (Monochoria); 0.1250 kg/ha
  MOOVA herbicidal effect rating: 9.0
MOOVA (Monochoria); 0.2500 kg/ha
  MOOVA herbicidal effect rating: 9.0
[12]; 0.0313 kg/ha
  SAGPY herbicidal effect rating: 0.0
[12]; 0.0625 kg/ha
  SAGPY herbicidal effect rating: 0.0
[12]; 0.1250 kg/ha
  SAGPY herbicidal effect rating: 0.0
[12]; 0.2500 kg/ha
  SAGPY herbicidal effect rating: 0.0
